# In ChEMBL document CHEMBL1201862, “PubChem BioAssay data set” (2004):
# Active and inactive are the calls of the source.
# What was measured:
# Hexokinase-1 = molecular target: T1, Hexokinase-1 (Homo sapiens, UniProt P19367); test: HK1 enzyme activation by HKDC1 hits – biochemical, selectivity assay for HKDC1 activator project, dose response (AID 504762); type: functional
# T1 sequence (P19367 whole entry): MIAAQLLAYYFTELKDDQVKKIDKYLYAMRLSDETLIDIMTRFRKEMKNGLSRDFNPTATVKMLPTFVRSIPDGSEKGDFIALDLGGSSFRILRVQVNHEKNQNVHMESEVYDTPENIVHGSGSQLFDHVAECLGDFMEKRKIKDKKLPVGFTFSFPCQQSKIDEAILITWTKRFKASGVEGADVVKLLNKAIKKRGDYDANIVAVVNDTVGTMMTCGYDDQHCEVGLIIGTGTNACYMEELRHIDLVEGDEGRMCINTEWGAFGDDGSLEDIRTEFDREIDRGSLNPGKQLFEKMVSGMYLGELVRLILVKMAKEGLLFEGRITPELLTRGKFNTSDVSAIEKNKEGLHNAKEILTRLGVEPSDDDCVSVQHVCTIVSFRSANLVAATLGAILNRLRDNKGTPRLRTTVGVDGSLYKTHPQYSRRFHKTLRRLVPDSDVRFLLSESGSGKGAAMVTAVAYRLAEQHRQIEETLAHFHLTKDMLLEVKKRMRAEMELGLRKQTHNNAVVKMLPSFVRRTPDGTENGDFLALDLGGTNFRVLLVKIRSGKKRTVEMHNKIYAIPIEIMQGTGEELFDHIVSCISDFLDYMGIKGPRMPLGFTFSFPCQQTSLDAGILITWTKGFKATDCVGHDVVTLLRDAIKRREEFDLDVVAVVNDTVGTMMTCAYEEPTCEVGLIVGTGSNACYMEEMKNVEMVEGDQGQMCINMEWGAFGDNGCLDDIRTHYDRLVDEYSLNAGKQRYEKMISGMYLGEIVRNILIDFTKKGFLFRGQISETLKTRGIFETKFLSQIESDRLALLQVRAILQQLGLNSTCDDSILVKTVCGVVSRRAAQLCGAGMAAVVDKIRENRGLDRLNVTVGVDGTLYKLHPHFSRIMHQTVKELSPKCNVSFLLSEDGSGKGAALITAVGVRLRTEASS
# INS1 = test: INS-1E survival protection against cytokine death – cell-based, luminescence, retest, dose response (AID 449756); type: functional; details: Rattus norvegicus;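 further: cell death triggered by IL-1 beta plus TNF-alpha plus IFN-gamma mixture; protective hits raise ATP signal compared with cytokine alone wells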
# Hexokinase HKDC1 = molecular target: T2, Hexokinase HKDC1 (Homo sapiens, UniProt Q2TB90); test: activation of HKDC1 glucose phosphorylation – biochemical, W721R variant, dose response (AID 504730); type: functional
# T2 sequence (Q2TB90 whole entry): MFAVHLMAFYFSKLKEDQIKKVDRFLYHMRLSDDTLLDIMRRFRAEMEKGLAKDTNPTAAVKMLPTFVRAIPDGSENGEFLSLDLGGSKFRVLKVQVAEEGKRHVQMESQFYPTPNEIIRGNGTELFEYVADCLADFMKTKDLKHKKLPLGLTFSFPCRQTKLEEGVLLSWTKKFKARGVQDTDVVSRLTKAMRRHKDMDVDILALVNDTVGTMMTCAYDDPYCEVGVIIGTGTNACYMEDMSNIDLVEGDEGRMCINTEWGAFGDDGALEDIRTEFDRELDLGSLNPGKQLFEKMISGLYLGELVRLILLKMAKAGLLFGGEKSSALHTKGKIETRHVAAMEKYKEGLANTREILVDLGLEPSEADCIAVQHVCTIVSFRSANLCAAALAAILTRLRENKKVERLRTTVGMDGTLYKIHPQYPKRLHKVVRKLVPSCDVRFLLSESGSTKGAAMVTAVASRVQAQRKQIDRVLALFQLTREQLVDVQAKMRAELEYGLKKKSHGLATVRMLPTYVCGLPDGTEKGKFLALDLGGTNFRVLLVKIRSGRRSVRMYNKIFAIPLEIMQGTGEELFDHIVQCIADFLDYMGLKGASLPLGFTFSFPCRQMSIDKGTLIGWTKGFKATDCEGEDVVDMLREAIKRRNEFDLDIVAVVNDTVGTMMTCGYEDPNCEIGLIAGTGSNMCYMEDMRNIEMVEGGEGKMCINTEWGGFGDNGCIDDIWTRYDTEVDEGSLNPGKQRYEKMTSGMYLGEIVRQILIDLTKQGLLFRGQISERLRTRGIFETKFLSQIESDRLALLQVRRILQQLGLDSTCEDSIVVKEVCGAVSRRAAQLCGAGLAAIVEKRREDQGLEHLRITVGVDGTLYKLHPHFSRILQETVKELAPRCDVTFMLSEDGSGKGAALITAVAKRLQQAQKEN
# [1] = molecular target: T3, Voltage-gated N-type calcium channel alpha-1B subunit/Amyloid beta A4 precursor protein-binding family A member 1 (Homo sapiens, UniProt Q00975+Q02410); type: protein assay
# T3 sequence (Q00975 whole entry): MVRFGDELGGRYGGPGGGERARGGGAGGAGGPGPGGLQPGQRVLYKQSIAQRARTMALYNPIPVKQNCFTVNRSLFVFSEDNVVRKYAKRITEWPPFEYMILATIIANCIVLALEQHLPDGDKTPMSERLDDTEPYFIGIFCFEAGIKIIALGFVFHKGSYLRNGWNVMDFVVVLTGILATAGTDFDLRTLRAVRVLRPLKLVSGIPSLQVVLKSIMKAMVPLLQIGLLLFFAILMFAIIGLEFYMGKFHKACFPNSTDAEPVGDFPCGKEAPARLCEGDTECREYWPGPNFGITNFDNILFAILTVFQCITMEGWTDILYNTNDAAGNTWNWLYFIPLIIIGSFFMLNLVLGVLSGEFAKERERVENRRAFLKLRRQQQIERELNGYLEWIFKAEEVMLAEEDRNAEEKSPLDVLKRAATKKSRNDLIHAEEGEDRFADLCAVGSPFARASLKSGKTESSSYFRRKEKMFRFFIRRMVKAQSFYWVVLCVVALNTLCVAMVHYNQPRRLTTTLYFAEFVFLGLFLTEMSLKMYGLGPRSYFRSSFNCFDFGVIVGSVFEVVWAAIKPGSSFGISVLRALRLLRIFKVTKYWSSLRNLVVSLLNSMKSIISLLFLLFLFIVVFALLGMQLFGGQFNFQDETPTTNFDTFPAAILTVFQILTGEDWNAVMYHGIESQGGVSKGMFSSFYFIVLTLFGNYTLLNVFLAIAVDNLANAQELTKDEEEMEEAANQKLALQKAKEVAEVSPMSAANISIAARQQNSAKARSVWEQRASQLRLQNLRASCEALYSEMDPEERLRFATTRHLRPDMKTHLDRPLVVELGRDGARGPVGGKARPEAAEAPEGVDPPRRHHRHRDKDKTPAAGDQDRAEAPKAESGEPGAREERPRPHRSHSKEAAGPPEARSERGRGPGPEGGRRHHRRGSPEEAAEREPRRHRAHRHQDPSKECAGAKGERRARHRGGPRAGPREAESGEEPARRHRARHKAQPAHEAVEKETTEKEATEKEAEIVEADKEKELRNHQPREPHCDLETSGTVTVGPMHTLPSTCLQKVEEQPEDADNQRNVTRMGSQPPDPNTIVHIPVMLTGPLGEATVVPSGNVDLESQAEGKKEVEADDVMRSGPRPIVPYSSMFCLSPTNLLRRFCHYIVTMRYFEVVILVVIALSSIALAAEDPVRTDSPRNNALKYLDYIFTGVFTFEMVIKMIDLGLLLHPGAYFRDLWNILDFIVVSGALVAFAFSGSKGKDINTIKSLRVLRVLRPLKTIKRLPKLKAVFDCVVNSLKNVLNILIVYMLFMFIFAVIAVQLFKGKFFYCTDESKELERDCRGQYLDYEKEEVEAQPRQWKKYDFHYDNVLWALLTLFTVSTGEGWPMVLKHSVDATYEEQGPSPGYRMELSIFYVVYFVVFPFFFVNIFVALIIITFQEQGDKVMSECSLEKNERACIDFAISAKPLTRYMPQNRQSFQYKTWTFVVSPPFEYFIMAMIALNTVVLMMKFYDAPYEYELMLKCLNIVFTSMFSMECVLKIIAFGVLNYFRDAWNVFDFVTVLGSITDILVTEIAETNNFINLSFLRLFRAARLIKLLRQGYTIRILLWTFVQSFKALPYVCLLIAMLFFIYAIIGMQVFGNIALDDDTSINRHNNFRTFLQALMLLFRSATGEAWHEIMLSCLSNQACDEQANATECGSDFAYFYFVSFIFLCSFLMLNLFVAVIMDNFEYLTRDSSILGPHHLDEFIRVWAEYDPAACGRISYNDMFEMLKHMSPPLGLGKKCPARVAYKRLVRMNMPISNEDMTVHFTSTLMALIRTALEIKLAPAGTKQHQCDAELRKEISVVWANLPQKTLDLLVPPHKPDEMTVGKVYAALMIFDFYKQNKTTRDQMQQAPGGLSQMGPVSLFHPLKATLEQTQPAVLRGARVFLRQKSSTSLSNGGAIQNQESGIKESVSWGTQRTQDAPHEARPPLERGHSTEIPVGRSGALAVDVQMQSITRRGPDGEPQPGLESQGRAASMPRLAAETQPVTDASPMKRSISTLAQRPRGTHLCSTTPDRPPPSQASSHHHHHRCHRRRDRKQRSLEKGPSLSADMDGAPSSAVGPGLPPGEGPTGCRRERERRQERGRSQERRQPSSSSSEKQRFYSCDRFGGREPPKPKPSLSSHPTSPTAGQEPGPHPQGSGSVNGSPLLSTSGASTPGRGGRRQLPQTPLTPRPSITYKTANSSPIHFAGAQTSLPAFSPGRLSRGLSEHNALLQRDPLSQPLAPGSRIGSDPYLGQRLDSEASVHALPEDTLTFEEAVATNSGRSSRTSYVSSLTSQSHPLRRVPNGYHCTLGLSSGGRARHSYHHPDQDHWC
# T3 sequence (Q02410 whole entry): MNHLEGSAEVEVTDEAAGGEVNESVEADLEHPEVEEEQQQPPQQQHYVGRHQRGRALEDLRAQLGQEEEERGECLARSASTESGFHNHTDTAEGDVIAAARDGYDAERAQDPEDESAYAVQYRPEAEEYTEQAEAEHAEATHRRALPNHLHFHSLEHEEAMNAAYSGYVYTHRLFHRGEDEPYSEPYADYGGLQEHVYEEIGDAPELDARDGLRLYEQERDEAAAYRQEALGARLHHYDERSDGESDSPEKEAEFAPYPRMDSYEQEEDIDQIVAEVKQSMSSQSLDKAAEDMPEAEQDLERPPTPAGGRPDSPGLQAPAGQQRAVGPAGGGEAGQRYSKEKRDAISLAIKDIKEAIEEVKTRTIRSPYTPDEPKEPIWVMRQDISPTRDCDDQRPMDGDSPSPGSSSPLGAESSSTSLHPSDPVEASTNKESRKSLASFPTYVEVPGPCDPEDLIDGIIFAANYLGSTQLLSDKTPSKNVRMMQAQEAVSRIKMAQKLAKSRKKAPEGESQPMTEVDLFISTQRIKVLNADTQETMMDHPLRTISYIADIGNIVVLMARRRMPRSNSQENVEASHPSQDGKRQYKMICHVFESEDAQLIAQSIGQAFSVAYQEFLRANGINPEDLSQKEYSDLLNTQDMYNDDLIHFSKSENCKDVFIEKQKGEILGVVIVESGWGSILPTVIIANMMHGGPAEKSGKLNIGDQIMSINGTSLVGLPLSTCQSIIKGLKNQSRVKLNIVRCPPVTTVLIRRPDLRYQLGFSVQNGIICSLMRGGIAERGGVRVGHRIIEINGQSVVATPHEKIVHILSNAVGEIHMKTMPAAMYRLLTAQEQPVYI
# [2] = molecular target: T3, Voltage-gated N-type calcium channel alpha-1B subunit/Amyloid beta A4 precursor protein-binding family A member 1; type: protein assay; remark: listed apart in the source
# [3] = molecular target: T4, Intestinal-type alkaline phosphatase (Homo sapiens, UniProt P09923); test: human intestinal alkaline phosphatase activators, dose response, biochemical, luminescence, uHTS hits (AID 463120); type: functional
# T4 sequence (P09923 whole entry): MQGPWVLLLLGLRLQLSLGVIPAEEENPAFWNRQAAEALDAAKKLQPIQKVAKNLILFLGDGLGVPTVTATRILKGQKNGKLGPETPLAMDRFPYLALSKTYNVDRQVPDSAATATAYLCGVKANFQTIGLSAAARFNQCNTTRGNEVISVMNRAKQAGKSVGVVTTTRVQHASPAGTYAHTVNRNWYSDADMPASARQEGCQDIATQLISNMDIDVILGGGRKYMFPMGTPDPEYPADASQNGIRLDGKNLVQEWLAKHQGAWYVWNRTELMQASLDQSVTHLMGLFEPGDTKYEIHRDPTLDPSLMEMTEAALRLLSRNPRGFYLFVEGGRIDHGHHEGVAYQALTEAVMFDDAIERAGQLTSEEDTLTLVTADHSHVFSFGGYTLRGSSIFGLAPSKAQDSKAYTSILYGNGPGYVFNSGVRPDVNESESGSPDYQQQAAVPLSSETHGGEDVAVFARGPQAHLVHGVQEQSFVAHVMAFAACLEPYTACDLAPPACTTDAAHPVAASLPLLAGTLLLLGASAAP
# [4] = molecular target: Peroxisome proliferator-activated receptor gamma/Nuclear receptor coactivator 1 (Homo sapiens, UniProt P37231); test: (§1) TR-FRET dose response biochemical High Throughput Screening assay for agonists of the steroid receptor coactivator 1 (SRC-1) recruitment by the peroxisome proliferator-activated receptor gamma (PPAR gamma): non-selective agonists. [Related pubchem assays (depositor defined):AID1300, AID1808, AID504735, AID631]; type: protein assay
# [5] = molecular target: Peroxisome proliferator-activated receptor gamma/Nuclear receptor coactivator 3 (Homo sapiens, UniProt P37231); test: as §1, with “3 (SRC-3)” for “1 (SRC-1)”, “assays: 1301 (Confirmation screen.), 1048 (Primary screen.)]” for “assays (depositor defined):AID1300, AID1808, AID504735, AID631]”; type: functional
# [6] = molecular target: Peroxisome proliferator-activated receptor gamma/Nuclear receptor coactivator 2 (Homo sapiens, UniProt P37231); test: TR-FRET dose response biochemical High Throughput Screening assay for agonists of the steroid receptor coactivator 2 (SRC-2) recruitment by the peroxisome proliferator-activated receptor gamma (PPAR gamma): non-selective agonists. [Related pubchem assays: 1297, 1032 ]; type: functional
# Streptococcus = test: GAS UMAA2166 growth inhibition – luminescence, BacTiterGlo, counter-screen for streptokinase expression inhibitor project, dose response (AID 1915); type: functional, organism-based;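 further: potency for reduction of bacterial viability or growth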
# [7] = mitochondrial function rescue without frataxin homolog – Friedreich's ataxia, plus single-dose screen, dose response (AID 1465); type: functional;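 further: yeast depleted of Yfh1p frataxin homolog grown on glycerol needing respiration; WST-1 tetrazolium dye reduction as measure of cellular dehydrogenase metabolic activity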
# Streptokinase A = molecular target: T5, Streptokinase A (Streptococcus pyogenes serotype M1, UniProt P10520); test: viability-normalized secreted streptokinase activity reduction – plasminogen activation absorbance, OD405, dose response (AID 1914); type: functional, Streptococcus pyogenes M1 GAS;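 further: secreted streptokinase activity via plasminogen activation per viability signal from cell pellet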
# T5 sequence (P10520 whole entry): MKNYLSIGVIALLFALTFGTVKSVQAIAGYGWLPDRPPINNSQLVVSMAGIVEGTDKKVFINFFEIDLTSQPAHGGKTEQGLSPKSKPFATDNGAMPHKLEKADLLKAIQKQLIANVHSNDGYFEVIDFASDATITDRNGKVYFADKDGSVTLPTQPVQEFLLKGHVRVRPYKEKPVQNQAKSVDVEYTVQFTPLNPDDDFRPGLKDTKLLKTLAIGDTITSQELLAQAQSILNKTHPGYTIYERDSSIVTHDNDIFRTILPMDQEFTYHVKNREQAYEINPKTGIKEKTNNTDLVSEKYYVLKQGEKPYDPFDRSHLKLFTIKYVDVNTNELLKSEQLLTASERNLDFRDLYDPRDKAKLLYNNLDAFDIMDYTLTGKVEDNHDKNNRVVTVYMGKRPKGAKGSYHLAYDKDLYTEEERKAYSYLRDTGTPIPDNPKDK
# [8] = tested on: Streptococcus sp. 'group A'; test: Streptococcus pyogenes SK(-)GAS viability under kanamycin – luminescence, BacTiterGlo, confirmation, counter-screen for streptokinase expression inhibitor project, dose response (AID 1900); type: functional, organism-based
# [9] = viability of uninfected HEp-2 cells – cell-based, HTS, cytotoxicity control for RSV inhibitor project, dose response (AID 2410); type: functional; details: human respiratory syncytial virus
# Keap1/Nrf2 = Keap1/Nrf2 (Homo sapiens, UniProt Q14145); test: disruptors of Keap1 binding to Nrf2 peptide – biochemical, fluorescence polarization, cherry-picked samples, dose response (AID 588683)
# Chain of Keap1/Nrf2 (Q16236 whole entry, the tested form may be a part): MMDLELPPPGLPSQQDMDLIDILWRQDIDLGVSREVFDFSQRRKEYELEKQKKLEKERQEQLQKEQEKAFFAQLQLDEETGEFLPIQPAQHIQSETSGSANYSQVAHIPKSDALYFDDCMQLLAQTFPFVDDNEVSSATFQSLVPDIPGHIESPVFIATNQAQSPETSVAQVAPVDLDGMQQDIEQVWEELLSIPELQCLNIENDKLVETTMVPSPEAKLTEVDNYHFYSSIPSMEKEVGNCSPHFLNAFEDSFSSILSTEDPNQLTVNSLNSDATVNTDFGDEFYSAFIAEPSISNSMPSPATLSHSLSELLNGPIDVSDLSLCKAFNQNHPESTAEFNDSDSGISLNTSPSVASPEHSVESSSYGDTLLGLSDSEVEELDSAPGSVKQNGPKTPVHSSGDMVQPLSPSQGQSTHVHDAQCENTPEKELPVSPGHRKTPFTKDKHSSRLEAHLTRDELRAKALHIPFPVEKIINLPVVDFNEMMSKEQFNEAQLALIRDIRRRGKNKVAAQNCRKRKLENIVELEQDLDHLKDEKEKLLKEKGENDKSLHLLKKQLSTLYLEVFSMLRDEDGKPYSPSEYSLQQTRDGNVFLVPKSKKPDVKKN
# Chain of Keap1/Nrf2 (Q14145 whole entry, the tested form may be a part): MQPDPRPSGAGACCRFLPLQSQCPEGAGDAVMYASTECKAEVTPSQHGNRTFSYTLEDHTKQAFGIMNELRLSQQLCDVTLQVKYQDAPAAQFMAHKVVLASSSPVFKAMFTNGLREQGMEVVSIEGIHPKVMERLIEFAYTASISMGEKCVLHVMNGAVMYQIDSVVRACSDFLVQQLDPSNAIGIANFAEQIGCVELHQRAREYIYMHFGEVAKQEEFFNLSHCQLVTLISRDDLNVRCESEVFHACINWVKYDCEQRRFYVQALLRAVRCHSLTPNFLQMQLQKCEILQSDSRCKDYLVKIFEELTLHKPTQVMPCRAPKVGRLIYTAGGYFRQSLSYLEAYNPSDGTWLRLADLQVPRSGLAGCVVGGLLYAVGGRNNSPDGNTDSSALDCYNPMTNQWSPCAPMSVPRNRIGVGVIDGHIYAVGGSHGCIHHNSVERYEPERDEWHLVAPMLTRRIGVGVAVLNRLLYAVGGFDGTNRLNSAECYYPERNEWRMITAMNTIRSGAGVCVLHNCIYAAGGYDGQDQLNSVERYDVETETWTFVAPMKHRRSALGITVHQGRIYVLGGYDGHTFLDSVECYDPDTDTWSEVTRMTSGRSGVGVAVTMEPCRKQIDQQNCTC
# [10] = molecular target: T6, Oxysterols receptor LXR-beta (Homo sapiens, UniProt P55055); type: functional, cell-based;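 further: Cell-based luminescence dose-response assay of agonist activity at LXR, run as a confirmatory counterscreen to a daf-12 agonist screen; HEK293 cells with Gal4-LXR fusion and GAL4-driven luciferase reporter; agonist potency from rising luciferase signal of a Gal4-LXR reporter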
# T6 sequence (P55055 whole entry): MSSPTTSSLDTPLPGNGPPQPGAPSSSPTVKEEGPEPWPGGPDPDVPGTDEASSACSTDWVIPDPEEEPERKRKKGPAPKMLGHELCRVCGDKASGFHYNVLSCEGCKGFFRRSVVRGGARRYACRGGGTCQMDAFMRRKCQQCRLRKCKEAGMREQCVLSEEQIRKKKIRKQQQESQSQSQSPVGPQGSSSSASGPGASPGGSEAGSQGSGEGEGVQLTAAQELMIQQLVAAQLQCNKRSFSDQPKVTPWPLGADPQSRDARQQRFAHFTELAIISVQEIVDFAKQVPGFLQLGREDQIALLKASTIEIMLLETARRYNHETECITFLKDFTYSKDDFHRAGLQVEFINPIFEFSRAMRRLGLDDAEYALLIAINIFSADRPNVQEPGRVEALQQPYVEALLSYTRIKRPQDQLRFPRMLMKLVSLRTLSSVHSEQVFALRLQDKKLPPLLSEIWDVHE
# [11] = molecular target: T4, Intestinal-type alkaline phosphatase; test: Dose Response confirmation of uHTS hits from a small molecule inhibitors of human intestinal alkaline phosphatase via a luminescent assay. [Related pubchem assays (depositor defined):AID2544, AID2574]; type: functional
# [12] = molecular target: Lysine-specific demethylase 4C (Homo sapiens, UniProt Q9H3R0); test: inhibition of JMJD2C H3K9me3 demethylation – biochemical, DELFIA europium, cherry-picked samples, dose response (AID 488835); type: functional
# [13] = toxicity toward cultured mammalian cells – cell-based, plate reader, cherry-pick samples, cytotoxicity control, dose response (AID 504397); type: functional
# CAAX prenyl protease 2 = molecular target: T7, CAAX prenyl protease 2 (Saccharomyces cerevisiae S288c, UniProt Q03530); type: biochemical
# T7 sequence (Q03530 whole entry): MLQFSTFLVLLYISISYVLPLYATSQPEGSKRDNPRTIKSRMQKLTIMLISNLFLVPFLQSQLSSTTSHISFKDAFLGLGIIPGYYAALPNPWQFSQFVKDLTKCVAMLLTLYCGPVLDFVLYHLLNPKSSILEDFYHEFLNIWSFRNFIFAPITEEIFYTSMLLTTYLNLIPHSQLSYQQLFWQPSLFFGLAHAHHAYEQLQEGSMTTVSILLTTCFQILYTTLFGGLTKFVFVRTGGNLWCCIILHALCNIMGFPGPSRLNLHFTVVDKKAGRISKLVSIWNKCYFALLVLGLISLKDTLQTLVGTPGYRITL
structure (smiles),measurement,setting,value
Clc1cccc(NC2=NN=C(c3ccc4c(c3)OCCO4)CS2)c1,EC50,Hexokinase-1,41.3 µM (inactive)
same,AC50,INS1,2.25 µM (active)
same,EC50,Hexokinase HKDC1,23.2 µM (inactive)
COc1cccc(/C=N/Nc2nn3cnnc3c3ccccc23)c1O,IC50,[1],20.6 µM (active)
same,IC50,[2],> 50 µM (inactive)
same,EC50,[3],> 100 µM (inactive)
Cc1onc(-c2ccccc2Cl)c1C(=O)Nc1nnc(-c2ccc(Cl)cc2Cl)s1,EC50,[4],51.2 µM (inactive)
same,EC50,[5],75.5 µM (not active)
same,EC50,[6],42.8 µM (not active)
O=C1CCCc2oc3c(cc(NS(=O)(=O)c4ccc5c6c(cccc46)C(=O)N5)c4ccccc43)c21,EC50,Streptococcus,> 150 µM (not active)
same,EC50,[7],> 100 µM (active)
same,EC50,Streptokinase A,> 150 µM (not active)
same,EC50,[8],3.82 µM (active)
same,CC50,[9],25.1 µM (active)
same,AC50,Keap1/Nrf2,51.2 µM (active)
NC(=O)c1c(NC(=O)c2ccc(F)cc2)sc2c1CCC2,EC50,[10],> 67.5 µM (inactive)
same,IC50,[11],> 100 µM (inactive)
same,EC50,cells,> 67.5 µM (inactive)
same,EC50,[3],> 100 µM (inactive)
Sc1nc(-c2ccc(Cl)cc2)cs1,EC50,[4],12 µM (inactive)
same,EC50,[5],> 79.4 µM (not active)
same,EC50,[6],21.8 µM (not active)
Cc1ccc(NC(=O)/C(C#N)=C(\N)C(Cl)(Cl)Cl)nc1,AC50,Keap1/Nrf2,11.9 µM (active)
Nc1cccc(C(=O)Nc2ccco2)c1,AC50,[12],27.5 µM (active)
CCN(CC)CCN(C(=O)c1ccc2ccccc2c1)c1nc2ccc(F)cc2s1,AC50,[13],181 µM (active)
same,AC50,CAAX prenyl protease 2,6.18 µM (active)
